Experimental findings from patent US20220315621A1, “COMPOSITIONS AND METHODS FOR TREATING CNS DISORDERS” (priority 2017, published 2022) are described below.

Each structure is given as a SMILES string.

The target in one experiment is TBPS binding. Briefly: Steroid inhibition of TBPS binding. Conditions: Table II-2; read-out: TBPS IC50 (μm).
In the case of `C[C@]1(O)CC[C@H]2CC[C@@H]3[C@H](CC[C@]4(C)[C@@H](C(=O)Cn5cc(C#N)cn5)CC[C@@H]34)[C@H]2CC1` [II-F11, 1-(2-((1S,3aS,3bR,5aR,8S,10aS,10bR,12aS)-8-hydroxy-8,12a-dimethyloctadecahydrocyclohepta[a]cyclopenta[f]naphthalen-1-yl)-2-oxoethyl)-1H-pyrazole-4-carbonitrile], the 50% inhibitory concentration (IC50) was 100 to 1000 nM. Same read-out and setting: with `C[C@]12CC[C@@H]3[C@H]4CC[C@](C)(O)[C@@H]4CC[C@H]3[C@@H]1CC[C@@H]2C(=O)Cn1cc(C#N)cn1` [II-H19, 1-(2-((1S,3aS,3bR,5aR,6S,8aR,8bS,10aS)-6-hydroxy-6,10a-dimethylhexadecahydrodicyclopenta[a,f]naphthalen-1-yl)-2-oxoethyl)-1H-pyrazole-4-carbonitrile] the figure was 1000 to 10000 nM. Still for that read-out and setting: under `CC(=O)[C@H]1CC[C@H]2[C@@H]3CC[C@@H]4CCC(=O)CC[C@@H]4[C@H]3CC[C@]12C` [II-E7a, (1S,3aS,3bR,5aR,10aS,10bR,12aS)-1-acetyl-12a-methylhexadecahydrocyclohepta[a]cyclopenta[f]naphthalen-8(1H)-one] stands 1000 to 10000 nM; under `CC(=O)[C@H]1CC[C@H]2[C@@H]3CC[C@H]4C[C@H](O)CCC[C@]4(C)[C@H]3CC[C@]12C` [II-B5, 1-((1S,3aS,3bR,5aS,7R,10aS,10bS,12aS)-7-hydroxy-10a,12a-dimethyloctadecahydrocyclohepta[a]cyclopenta[f]naphthalen-1-yl)ethan-1-one], 100 to 1000 nM. In the case of `Cc1nnn(CC(=O)[C@H]2CC[C@H]3[C@@H]4CC=C5CC[C@](C)(O)CC[C@]5(C)[C@H]4CC[C@]23C)n1` [II-F6, 1-((1S,3aS,3bS,8S,10aR,10bS,12aS)-8-hydroxy-8,10a,12a-trimethyl-1,2,3,3a,3b,4,6,7,8,9,10,10a,10b,11,12,12a-hexadecahydrocyclohepta[a]cyclopenta[f]naphthalen-1-yl)-2-(5-methyl-2H-tetrazol-2-yl)ethan-1-one], the 50% inhibitory concentration (IC50) lay in the range of 10 to 100 nM. For the compound `CC(=O)[C@H]1CC[C@H]2[C@@H]3CC[C@H]4CC[C@](C)(O)CC[C@]4(C)[C@H]3CC[C@]12C` [II-C3, 1-((1S,3aS,3bR,5aS,8S,10aS,10bS,12aS)-8-hydroxy-8,10a,12a-trimethyloctadecahydrocyclohepta[a]cyclopenta[f]naphthalen-1-yl)ethan-1-one], the IC50 is 10 to 100 nM. Regarding `C[C@@]1(O)CC[C@@H]2CC[C@@H]3[C@H](CC[C@]4(C)[C@@H](C(=O)Cn5cc(C#N)cn5)CC[C@@H]34)[C@@]2(C)CC1` [II-C8, 1-(2-((1S,3aS,3bR,5aS,8R,10aS,10bS,12aS)-8-hydroxy-8,10a,12a-trimethyloctadecahydrocyclohepta[a]cyclopenta[f]naphthalen-1-yl)-2-oxoethyl)-1H-pyrazole-4-carbonitrile], the IC50 was 100 to 1000 nM. Turning to `Cc1nnn(CC(=O)[C@H]2CC[C@H]3[C@@H]4CC[C@@H]5CC[C@](C)(O)CC[C@@H]5[C@H]4CC[C@]23C)n1` [II-F12, 1-((1S,3aS,3bR,5aR,8S,10aS,10bR,12aS)-8-hydroxy-8,12a-dimethyloctadecahydrocyclohepta[a]cyclopenta[f]naphthalen-1-yl)-2-(5-methyl-2H-tetrazol-2-yl)ethan-1-one], the IC50 was in the range of 100 to 1000 nM.

The target of the next experiment is GABAA receptor (rat brain cortical membranes, [35S]-TBPS binding).
Assay: not given
Conditions: not given
As for `CCOC[C@@]1(O)CC[C@H]2[C@@H](CC[C@@H]3[C@@H]2CC[C@]2(C)[C@@H](C(=O)Nc4ccccc4)CCC[C@@H]32)C1` [I-B11, (1S,4aS,4bR,6aS,8R,10aS,10bR,12aS)-8-(ethoxymethyl)-8-hydroxy-12a-methyl-N-phenyloctadecahydrochrysene-1-carboxamide], the 50% inhibitory concentration (IC50) is 10 to 100 nM.

Staying with this experiment, now noted: Table I-4; rat brain cortical membranes, 3 nM [35S]-TBPS, in the presence of 5 mM GABA.
As for `C[C@@]1(O)CC[C@H]2[C@H](CC[C@@H]3[C@@H]2CC[C@]2(C)[C@@H](Nc4cccc(C#N)c4)CCC[C@@H]32)C1` [Compound I-10, 3-(((1S,4aS,4bR,6aR,8R,10aS,10bR,12aS)-8-hydroxy-8,12a-dimethyloctadecahydrochrysen-1-yl)amino)benzonitrile], the 50% inhibitory concentration (IC50) lay within 10 to 100 nM. The same measure, in the same setting: under `COC[C@@]1(O)CC[C@H]2[C@H](CC[C@@H]3[C@@H]2CC[C@]2(C)[C@@H](C(=O)N4CCCC[C@@H]4C)CCC[C@@H]32)C1` [I-L14, ((1S,4aS,4bR,6aR,8R,10aS,10bR,12aS)-8-hydroxy-8-(methoxymethyl)-12a-methyloctadecahydrochrysen-1-yl)((S)-2-methylpiperidin-1-yl)methanone] stands 100 to 1000 nM; under `COC[C@@]1(O)CC[C@H]2[C@@H](CC[C@@H]3[C@@H]2CC[C@]2(C)[C@@H](C(=O)NCc4ccccc4)CCC[C@@H]32)C1` [Compound I-25, (1S,4aS,4bR,6aS,8R,10aS,10bR,12aS)-N-benzyl-8-hydroxy-8-(methoxymethyl)-12a-methyloctadecahydrochrysene-1-carboxamide], 10 to 100 nM.

Take `C[C@]12CC[C@H]3[C@@H](CC[C@@H]4C[C@H](O)CC[C@@H]43)[C@@H]1CC[C@H](C(=O)Nc1ccccc1)C2` (single isomer, unassigned) [I-R24]: the IC50 lay in the range of 1000 to 10000 nM.

On to `C[C@@]1(O)CC[C@H]2[C@H](CC[C@@H]3[C@@H]2CC[C@]2(C)[C@@H](C(=O)NCc4ccccn4)CCC[C@@H]32)C1` [Compound I-17, (1S,4aS,4bR,6aR,8R,10aS,10bR,12aS)-8-hydroxy-8,12a-dimethyl-N-(pyridin-2-ylmethyl)octadecahydrochrysene-1-carboxamide], for which the half-inhibitory concentration (IC50) lay in the range of 10 to 100 nM.

Take `CC(=O)[C@H]1CCC[C@H]2[C@@H]3CC[C@@H]4C[C@](C)(O)CC[C@@H]4[C@H]3CC[C@]12C` [I-D7, 1-((1S,4aS,4bR,6aR,8R,10aS,10bR,12aS)-8-hydroxy-8,12a-dimethyloctadecahydrochrysen-1-yl)ethan-1-one]: the IC50 was < 10 nM. Take `Cc1nnn(CC(=O)[C@H]2CCC[C@H]3[C@@H]4CC[C@@H]5C[C@](C)(O)CC[C@]5(C)[C@H]4CC[C@]23C)n1` [Compound I-20, 1-((1S,4aS,4bR,6aR,8R,10aS,10bS,12aS)-8-hydroxy-8,10a,12a-trimethyloctadecahydrochrysen-1-yl)-2-(5-methyl-2H-tetrazol-2-yl)ethan-1-one]: the IC50 lay within 100 to 1000 nM.

The same experiment, now with this note: Table I-5; rat brain cortical membranes, 3 nM [35S]-TBPS, in the presence of 5 mM GABA.
Take `CC(=O)[C@@H]1C[C@H]2[C@@H]3CC[C@H]4C[C@](C)(O)CC[C@@H]4[C@H]3CC[C@]12C` [I-AD8a, 1-((1R,2aS,2bR,4aS,6R,8aS,8bR,10aS)-6-hydroxy-6,10a-dimethylhexadecahydrocyclobuta[a]phenanthren-1-yl)ethan-1-one]: the IC50 lay in the range of 1000 to 10000 nM.

`C[C@@]1(O)CC[C@H]2[C@H](CC[C@@H]3[C@@H]2CC[C@]2(C)[C@H](C(=O)Cn4cc(C#N)cn4)C[C@@H]32)C1` [Compound I-105, 1-(2-((1R,2aS,2bR,4aR,6R,8aS,8bR,10aS)-6-hydroxy-6,10a-dimethylhexadecahydrocyclobuta[a]phenanthren-1-yl)-2-oxoethyl)-1H-pyrazole-4-carbonitrile]: the IC50 fell in the range of 1000 to 10000 nM. Same read-out and setting: under `COC[C@@]1(O)CC[C@H]2[C@H](CC[C@@H]3[C@@H]2CC[C@]2(C)[C@@H](C(=O)Cn4cc(C#N)cn4)C[C@@H]32)C1` [I-AC14, 1-(2-((1S,2aS,2bR,4aR,6R,8aS,8bR,10aS)-6-hydroxy-6-(methoxymethyl)-10a-methylhexadecahydrocyclobuta[a]phenanthren-1-yl)-2-oxoethyl)-1H-pyrazole-4-carbonitrile] stands 100 to 1000 nM; under `COC[C@H]1C[C@H]2[C@@H]3CC[C@@H]4C[C@](C)(O)CC[C@@H]4[C@H]3CC[C@]12C` [Compound I-117, (1S,2aS,2bR,4aR,6R,8aS,8bR,10aS)-1-(methoxymethyl)-6,10a-dimethylhexadecahydrocyclobuta[a]phenanthren-6-ol], 100 to 1000 nM.

The same experiment, now with this note: Table I-6; rat brain cortical membranes, 3 nM [35S]-TBPS, in the presence of 5 mM GABA.
As to `CC(=O)[C@@H]1CCC[C@H]2[C@@H]3CC[C@@H]4C[C@](C)(O)CC[C@@H]4[C@H]3CC[C@]2(C)C1` [I-BC14b], the 50% inhibitory concentration (IC50) was in the range of 1000 to 10000 nM. For the compound `CC(=O)[C@H]1CCCC[C@H]2[C@@H]3CC[C@@H]4C[C@](C)(O)CC[C@@H]4[C@H]3CC[C@]12C` [I-BA9a, 1-((2R,4aS,4bR,6aS,7S,11aS,11bR,13aR)-2-hydroxy-2,6a-dimethyloctadecahydro-1H-cyclohepta[a]phenanthren-7-yl)ethan-1-one], the half-inhibitory concentration (IC50) fell in the range of 10 to 100 nM. Same read-out and setting: under `C[C@@]1(O)CC[C@H]2[C@H](CC[C@@H]3[C@@H]2CC[C@]2(C)C[C@H](C(=O)Cn4cc(C#N)cn4)CCC[C@@H]32)C1` [I-BC16a, 1-(2-((2R,4aS,4bR,6aR,8R,11aS,11bR,13aR)-2-hydroxy-2,6a-dimethyloctadecahydro-1H-cyclohepta[a]phenanthren-8-yl)-2-oxoethyl)-1H-pyrazole-4-carbonitrile] stands 100 to 1000 nM. Same read-out and setting: under `C[C@@]1(O)CC[C@H]2[C@H](CC[C@@H]3[C@@H]2CC[C@]2(C)C[C@@H](C(=O)Nc4ccccc4)CCC[C@@H]32)C1` [I-BC11, (2R,4aS,4bR,6aR,8S,11aS,11bR,13aR)-2-hydroxy-2,6a-dimethyl-N-phenyloctadecahydro-1H-cyclohepta[a]phenanthrene-8-carboxamide] stands 1000 to 10000 nM; under `C[C@@]1(O)CC[C@H]2[C@H](CC[C@@H]3[C@@H]2CC[C@]2(C)[C@H](CO)CCCC[C@@H]32)C1` [I-BA5a, (2R,4aS,4bR,6aS,7R,11aS,11bR,13aR)-7-(hydroxymethyl)-2,6a-dimethyloctadecahydro-1H-cyclohepta[a]phenanthren-2-ol], 1000 to 10000 nM.
